Reference: publication PMC6135396, “Repurposing antimalarial aminoquinolines and related compounds for treatment of retinal neovascularization” (PLoS ONE, 2018)

Key:
Plasma stability, rat = type: in vitro ADME
Plasma stability, human = type: in vitro ADME
parental CHO-K1 cells = assay: Parental cAMP counter assay (cells lacking APJ); type: cell-based; details: Cricetulus griseus
Experimental: To identify small-molecule antagonists of the apelin receptor (APJ) we interrogated the SBP compound file of ~425,000 compounds using CHO-k1-AGTRL1 cells overexpressing human APJ and a competitive immunoassay of intracellular cAMP [59]. The compound file was screened at a concentration of 10 μM. For all 333 plates assayed, the average Z-factor = 0.68 and the average S/B = 8.2, indicating a robust assay performance. […] There were 2550 compounds that met this criterion, representing a hit rate of ~0.6%. […] Included in this hit set was a series of aminoquinolines, exemplified by compound 1 (Fig 1B). […] As part of an initial hit-validation strategy, these compounds and three other commercially available analogs were purchased for further testing. The purity and identify of all compounds were confirmed by NMR and LC-MS, and they were subsequently retested in a battery of cell-based assays of APJ function and counter screens. […] (Fig 1D).
PathHunter™ GPCR Arrestin and cAMP Hunter™ cell lines (DiscoveRx Corp., Fremont, CA) were used to assay G-protein-dependent signaling and β-arrestin recruitment to APJ. CHO-K1 cells stably expressing APJ (CHO-K1-APJ) or AT1 (CHO-K1-AT1) with β-arrestin/β-galactosidase enzyme fragment complementation constructs were maintained in HAM's F-12 medium (Hyclone, Logan, UT) supplemented with 10% FBS, 1X Penicillin-Streptomycin-Glutamine (Invitrogen; Carlsbad, CA), 300 μg/ml hygromycin (EMD Biosciences, San Diego, CA), and 800 μg/ml Geneticin (Cellgro, Manassas, VA). Primary Human Retinal Microvascular Endothelial Cells (HRECs) were purchased from Cell Systems (Kirkland, WA) and maintained in Complete Classic Medium with CultureBoost-R™ (Cell Systems). Parent CHO-K1 cells were obtained from ATCC and maintained in HAM’s F-12 medium supplemented with 10% FBS, and1X Penicillin-Streptomycin-Glutamine (Invitrogen; Carlsbad, CA). All cells were incubated at 37°C (5% CO2, 95% relative humidity) and maintained at less than 70% to 80% confluence (approximately 75,000 cells/cm^2). Cell heterologously expressing APJ or AT1 were not used after 10 passages. HRECs were not used in any experiments after five passages.
All reagents unless otherwise specified are components of the cAMP HitHunter (DiscoveRx) kit. Ligand Buffer + 60 μM Forskolin (Cayman Chemical, Ann Arbor, MI) was made fresh on the day of the experiment and used for the dilution of positive and negative controls as well as all peptides. CHO-K1-APJ cells were dispensed into a 1536-well tissue culture microplate (Corning, Corning, NY) using a Multidrop at a seeding density of 1,000 cells/well and returned to the incubator. The next day, the cell culture media was removed and replaced with 15 μl/well of assay buffer (1X HBSS, 10 mM HEPES) containing anti-cAMP antibody (DiscoveRx). […] Plates were incubated at room temperature in the dark for 3 hours prior to chemiluminescence detection on an EnVision (Perkin Elmer) using a counting time of 1 s/well.

CCN(CC)Cc1cc(Nc2ccnc3cc(Cl)ccc23)ccc1O [AQ, amodiaquine]
Plasma stability (Plasma stability, rat): 46.3 % remaining at 3 hrs | Plasma stability (Plasma stability, human): 37.3 % remaining at 3 hrs | IC50 (parental CHO-K1 cells): > 99 µM
